Here are results for three compounds from US4256750A, “Pharmaceutical compositions” (Wulfing; Johann A., priority 1979, dated 1981).

Where “and” joins values, the source holds several entries; their conditions need not be identical. Equal entries are not always repeated.

Data set [1] has as its system ischaemic skeletal muscle (m. gastrocnemius). The experiment in a line: pO2 (oxygen tension) measurement in ischaemic skeletal muscle of anaesthetized cats. In kind it is in vivo, cat. The conditions noted are these: for change of pO2 of ischaemic skeletal muscle (in words): B and C at 5-32 mg/kg compared with Compound A at 125 μg/kg; for effect of Compound B, ΔpO2: 5 mg/kg i.v.; for effect of Compound B, ΔpO2 / effect of Compound A, ΔpO2: individual cats; for effect of Compound A, ΔpO2: 125 μg/kg i.v.
Procedure: pO2 was measured polarographically using Pt-needle electrodes (modified according to Baumgartl and Lubbers, 1973). The reference electrode, an Ag/A/AgCl system was sputtered on the glass mantle of the cathode, or it was a separate electrode. The cathode was coated with a polystyrol and a collodium membrane. A constant voltage supply provided a polarizing voltage between 600 and 800 mV. The reducing current was measured by a nano-ampere amplifying meter. The cathode was inserted in the tissue by means of a motor-driven micromanipulator.
A pO2 -electrode was inserted in the muscle tissue (m. gastrocnemius) of both hindlegs of an anaesthetized cat. After recording the pO2 of the normal perfused muscle, the blood flow to one measuring site was restricted by ligating the femoral artery. The pO2 dropped steeply and the tissue became ischaemic. After a few minutes, the pO2 increased and then decreased again. The values were constant after 30 to 60 min. After having reached a constant level of pO2, the vehicle was given, followed by the test substance.
The mean value and the standard deviation were calculated, in order to check the significance of the effect.

Data set [2] has as its system ischaemic skeletal muscle (calf muscles). Nature of the data set: Skeletal muscle contractility in anaesthetized cats with restricted femoral blood flow. In kind it is in vivo, cat. Conditions: for change of contractility of ischaemic skeletal muscle (in words) / contractility (% initial value): cat; for change of contractility of ischaemic skeletal muscle (in words): B and C at 5-32 mg/kg compared with Compound A at 125 μg/kg; for contractility (% initial value): ischaemic muscle. On the procedure: (§1) Cats of either sex were anaesthetized with urethane/chloralose (120/60 mg/kg i.p.). In the course of the experiments, pentobarbital was injected intravenously (V. antebrachii ceph.) via a plastic tube. The intraduodenal (i.d.) application of compound was conducted by means of a plastic catheter, which was inserted into the duodenum.
(§2) Cats of either sex were anaesthetized as for pO2 measurement. After dissection of the skin of the calf muscles, the sciatic nerve was cut about 3 cm proximal to the knee. The tendon of the calf muscles was cut and connected with an isometric force transducer (SWEMA, SG 3). In order to maintain constant differences and a resting tension of 100 p, the hind limb was fixed at the tibia by means of a clamp. Direct stimulation of the muscles consisted of square wave pulses of 4 msec duration at a frequency of 2 Hz and at a voltage of 50 V. In order to keep the muscles wet and at a normal temperature, the muscles were continuously superfused by means of a NaCl-solution (0.9%, 38° C.). Femoral blood flow was restricted by a graded occlusion of the artery leading to a reduction of contractility by ca. 30%. After having reached a constant level of the contraction force, the vehicle (NaCl and Methocel, respectively) was injected, followed by the test substance.

Data set [3] is described as follows: Solubility in water / aqueous media. In kind it is physicochemical.
For data set [4] the following is noted: in vivo; cited from earlier work.
Data set [5] in a line: Blood pressure (BP) change in the cat contractility experiment (Table 3). In kind it is in vivo. On the procedure: as §1, §2
Setting [6] is: contractility and pO2 of ischaemic skeletal muscle, cat.
[7] abbreviates: i.d., Compound A 125 μg/kg, Compound B 32 mg/kg, Compound C 12.5 mg/kg.
Setting [8] is: control (hind limb not ligated).
The mark [9] stands for this setting: i.v., Compound A 50 μg/kg, Compound B 5 mg/kg.

As to `CCCCn1c(=O)c2c(ncn2CCC(C)=O)n(CCCC)c1=O` [Compound C, 1,3-di-n-butyl-7-(3-oxobutyl)xanthine, reference compound], the “change of pO2 of ischaemic skeletal muscle (in words)” value (“change of pO2 … (in words)” for short) in data set [1] (cat) is given as “less pronounced”. For the same compound, in data set [1] (setting [6]), the “dose range of activity” value fell in the range of 5 to 32 mg/kg. For the same compound, the “change of contractility of ischaemic skeletal muscle (in words)” value (“change of contractility … (in words)” for short) in data set [2] is on record as “less pronounced”. Also, the “contractility (% initial value)” value in data set [2] (setting [7]) is 22 % initial value. The “water solubility (in words)” value in data set [3] (water, reason for not testing i.v.) is recorded as “low water solubility”.
With `CC(=O)CCCCn1c(=O)c2c(ncn2C)n(C)c1=O` [Compound B, pentoxyphylline, reference compound], the “effect of Compound B, ΔpO2” value in data set [1] (setting [8]) was 0.3 Torr and 1.02 Torr and -2.4 Torr and 14.3 Torr and -0.9 Torr; in data set [1] (hind limb art. ligation) it was -0.16 Torr and -1.5 Torr. For the same compound, the “Mean effect of Compound B compared to Compound A” value in data set [1] (B 5 mg/kg vs A 125 μg/kg, i.v.) was 21.3%. In addition, the “change of pO2 … (in words)” value in data set [1] (cat) is reported as “less pronounced”. Also, the “change of contractility … (in words)” value in data set [2] is “less pronounced”. Also, the figures for the “contractility (% initial value)” value in data set [2] (setting [7]) and in data set [2] (setting [9]) were 23 % initial value and 9 % initial value, respectively. The “oral toxicity (in words)” value in data set [4] is reported as “low oral toxicity”.
In the case of `CCCCn1c(=O)c2c(ncn2CC(C)=O)n(CCCC)c1=O` [Compound A, 1,3-di-n-butyl-7-(2-oxopropyl)xanthine], the “effect of Compound A, ΔpO2” value was 13.2 Torr and 3.8 Torr and 3.5 Torr and 19.3 Torr and 3.4 Torr in data set [1] (setting [8]); 6.2 Torr and 7.3 Torr and 5.2 Torr and 27.1 Torr and 11.2 Torr and 5.6 Torr in data set [1] (hind limb art. ligation). The “change of pO2 … (in words)” value in data set [1] (cat) is recorded as “distinct increase”. Further, the “high activity in the μg-range (dose range)” value in data set [1] (setting [6]) is 0.05 to 0.125 mg/kg. Moreover, the “Δ initial phase BP decrease, t (time interval to reach initial values)” value in data set [5] (50 μg/kg i.v.) was determined as 2 min; in data set [5] (125 μg/kg i.v.), 3 min; in data set [5] (313 μg/kg i.v., n = 1), 2 min. In addition, the “Δ second phase BP increase, t (time interval to reach initial values)” value in data set [5] (50 μg/kg i.v.) was found to be 33 min; in data set [5] (125 μg/kg i.v.), 32 min; in data set [5] (313 μg/kg i.v., n = 1) it was 6 min. For the same compound, the “Δ initial phase BP decrease” value is -14.0 percentage of initial values in data set [5] (50 μg/kg i.v., mean, n 4); -23.1 percentage of initial values in data set [5] (125 μg/kg i.v., mean); -25.0 percentage of initial values in data set [5] (313 μg/kg i.v., n = 1). In addition, the “Δ second phase BP increase” value in data set [5] (50 μg/kg i.v., mean, n 4) was “+17.0 percentage of initial values”; in data set [5] (125 μg/kg i.v., mean), “+10.8 percentage of initial values”; in data set [5] (313 μg/kg i.v., n = 1) it was “+15.0 percentage of initial values”. Moreover, the “Δ muscle contract., t (time interval to reach initial values)” value in data set [2] (50 μg/kg i.v.) is more than 60 min; in data set [2] (125 μg/kg i.v.) it was more than 60 min; in data set [2] (313 μg/kg i.v., n = 1), more than 60 min. The Δ muscle contract. entry in data set [2] (50 μg/kg i.v., mean, n 4) is “+36.0 percentage of initial values”; in data set [2] (125 μg/kg i.v., mean) it was “+19.0 percentage of initial values”; in data set [2] (313 μg/kg i.v., n = 1), “+25.0 percentage of initial values”. In addition, the “change of contractility … (in words)” value in data set [2] is reported as “distinct increase”. Moreover, the figures for the “contractility (% initial value)” value in data set [2] (setting [7]) and in data set [2] (setting [9]) were 32 % initial value and 36 % initial value, respectively. Also, the “solubility in aqueous media (in words)” value in data set [3] (aqueous media) is listed as “only sparingly soluble”.
